Results reported in patent publication US20120184625A1, “METHODS AND COMPOSITIONS FOR CONTROLLING PESTS” (priority 2001, published 2012).

What was measured:
[1] = tested on: Two spotted mite (TSM) Tetranychus urticae Koch; assay: TSM leaf disc bioassay, Potter spray tower; assay type: in vivo; parameters: LD50 and 95% CL: unit not given beside the values; conditions: for LD50 and 95% CL: in vivo
Experimental: Two spotted mite (TSM) Tetranychus urticae Koch [Acarina: Tetranychidae] were collected from a mass culture maintained at the University of Western Sydney's Hawkesbury Campus in Richmond, NSW, Australia. They were reared on potted French beans (Phaseolus vulgaris L [Fabales: Fabaceae] in a glasshouse maintained at 25±5° C., 65±5% RH and 14 h D:L photoperiod. Only young females were selected for bioassay.
From an E. cloeziana oil extract (containing 85% tasmanone), 1.1765 g was dissolved in 5 mL ethyl alcohol and distilled water containing 200 ppm Triton X-100™ was added to prepare a 1% stock solution. From this homogenised stock solution, further serial dilutions of 0.0125, 0.025, 0.05, 0.10, and 0.12% were prepared by mixing the required amount of stock solution in distilled water and Triton X-100 solution. Each treatment was conducted on 60-80 TSM, which were evenly distributed on four French bean leaf discs (25 mm diam) contained in 90 mm diam. petri dishes. The leaf discs were placed with their underside uppermost on moist absorbent cotton wool covered with muslin netting. Water was added to the dishes daily to prevent desiccation of the leaf discs. Five mL aliquots (unless otherwise stated) were applied to each petri dish with a Potter precision spray tower as described by Herron et al (1995). The average mass of solution applied to each dish was calculated to be 3.95 mg/cm^2. Mortality was recorded 24 h after treatment. Death was recognised by the absence of movement when the test organisms were mechanically stimulated. Data were analysed using SPSS for Windows™ Version 7. Probit analysis was carried out for dose-mortality data and heterogeneity of regressions was determined by the Pearson chi-squared characteristic.
In addition, TSM was treated with E. cloeziana oil extract in combination with paraffin oil. In particular, E. cloeziana oil extract at levels of 0.1, 0.2, 0.3, 0.4 and 0.5 g were weighed out and each was made up to a weight of 10.0 g with a formulated paraffin oil (BioPest®), which was then sonicated for 10 min. A 1.0% v/v of each blend was prepared by mixing 1.0 mL with distilled water in a 100.0 mL volumetric flask. TSM were transferred to the petri dish following the same standard method. Five-mL aliquots were applied to each petri dish and mortality was recorded 24 h after treatment. All blends of E. cloeziana oil extract with paraffin oil produced 100.0% mortality, compared with Biopest® alone which caused only 35.5±6.9 mortality.
The efficacy of purified β-triketones against TSM was investigated using the TSM bioassay described in Example 8.

[2] = tested on: greenhouse thrips (GHT), Heliothrips haemorrhoidalis Bouché; assay: Greenhouse thrips bioassay on lemon leaf discs, Potter spray tower; assay type: in vivo
Experimental: Adult parthenogenetic female greenhouse thrips (GHT), Heliothrips haemorrhoidalis Bouché (Thysanoptera: Thripidae) of similar age were obtained from a colony reared on orange fruits and maintained in an insectary at UWS Hawkesbury under conditions of 25±3° C., 65% RH and 16 h D:L photoperiod
The same experimental procedure used for TSM was repeated for GHT except that lemon leaf discs were used instead of French beans. The required number of adult thrips for each treatment was transferred with a fine brush to the underside of a lemon disc of the same diameter (6 cm) as the base of a petri dish. The lemon disc was mounted on agar with its adaxial side uppermost. Immediately after treatment the petri dish was covered with perforated plastic wrap. […]
The efficacy of purified β-triketones against GHT was investigated using the GHT bioassay described in Example 8.
All β-triketones except jensenone caused 100% mortality on GHT at a concentration of 0.3% when 5 mL aliquots were applied with a Potter spray tower.

CC(=O)C1=C(O)C(C)CC(C)(C)C1=O (stereo not drawn) [Angustione, 1-acetyl-3,5,5-trimethylcyclohex-2,6-dione]
LD50 and 95% CL [1]: 0.22 (0.21-0.24)

CC(=O)C1=C(O)C(C)(C)C=C(C)C1=O [Dehydroangustione, 1-acetyl-3,5,5-trimethylcyclohex-3-en-2,6-dione]
LD50 and 95% CL [1]: 0.36 (0.33-0.41)

CC1(C)C(=O)C(CCc2ccccc2)C(=O)C(C)(C)C1=O [Grandiflorone, 1-(2-phenylethyl)-3,3,5,5-tetramethylcyclohexan-2,4,6-trione]
LD50 and 95% CL [1]: 0.04

CC(C)CC(=O)C1C(=O)C(C=O)C(=O)C(C=O)C1=O (stereo not drawn) [Jensenone]
behavioural effect on treated TSM ([1]; TSM, 0.05-0.4%): to move normally and continued to convulse
recovery of treated TSM ([1]; TSM, 0.05-0.4%): treatment. There was no recovery.
time after treatment at which TSM commenced to die ([1]; TSM, 0.05-0.4%): until they commenced to die 72 h after
direct mortality within 24 h ([1]; TSM, any concentration tested (0.05-0.4%)): No direct mortality occurred in any
mortality ([2]; 72 h after application in the 0.4% treatment): 60.0%
behavioural effects ([2]; all concentrations tested): Convulsion and lack of movement
direct mortality within 24 h ([2]; all concentrations tested): did not cause direct mortality

COC1=CC(=O)C(C(C)=O)C(=O)C1(C)C (stereo not drawn) [Platyphyllol, 6,6-dimethyl-2-acetyl-5-methoxycyclohex-4-ene-1,3-dione]
LD50 and 95% CL [1]: 0.070

COC1=C(C)C(=O)C(C(=O)C(C)C)C(=O)C1(C)C (stereo not drawn) [Tasmanone, 1-isobutroyl-4-methoxy-3,5,5-trimethylcyclohex-3-en-2,6-dione]
LD50 and 95% CL [1]: 0.055
